Converted amounts (≈) assume the structure as drawn.
Legend:
[1] = Solubility in phosphate buffer at pH 7.4; type: physicochemical
[2] = Intrinsic clearance in rat microsomes; type: ADME, Microsome; conditions: liver microsomes
[3] = Bioavailability in rat; type: ADME, organism-based; conditions: in vivo
[4] = Clearance in rat; type: ADME, organism-based; conditions: in vivo
[5] = Permeability across Caco-2 cell membrane; type: ADME, cell-based; conditions: human, read-out: permeability
[6] = Half life in po dosed rat; type: ADME, organism-based; conditions: in vivo

Row | solubility [1] [µM] | Compound | further results
1 | 17 (≈ 6.25 µg/mL) | O=C(Nc1cc(-c2ccnc(Nc3ccccc3)c2)ccn1)c1cccnc1 | 
2 | 20 (≈ 6.97 µg/mL) | COCCC(=O)Nc1cc(-c2ccnc(Nc3ccccc3)c2)ccn1 | 
3 | 8 (≈ 3.22 µg/mL) | COC1CCC(C(=O)Nc2cc(-c3ccnc(Nc4ccccc4)c3)ccn2)CC1 (configuration not stated) | 
4 | 40 (≈ 15.3 µg/mL) | Cc1cnc(C(=O)Nc2cc(-c3ccnc(Nc4ccccc4)c3)ccn2)cn1 | 
5 | 4 (≈ 1.43 µg/mL) | O=C(Nc1cc(-c2ccnc(Nc3ccccc3)c2)ccn1)c1ccco1 | 
6 |  | O=C(Nc1cc(-c2ccnc(Nc3ccccc3)c2)ccn1)C1CCOC1 (configuration not stated) | microsomal CLint [2]: 12 µL/min/mg; bioavailability [3]: 16%; clearance [4]: 30 mL/min/kg; Papp [5]: 29.9 ×10⁻⁶ cm/s; half-life [6]: 4.7 h
7 | < 0.1 | Fc1ccc(Nc2cc(-c3ccnc(Nc4ccc(F)cc4)c3)ccn2)cc1 | 
8 | 94 (≈ 39.1 µg/mL) | CC(=O)N1CCC(C(=O)Nc2cc(-c3ccnc(Nc4ccccc4)c3)ccn2)CC1 | 
